This is an account of results in US20100029643A1 (ASTRAZENECA AB, priority 2006, published 2010).

One test deals with T1, Edg-1/S1P1 receptor (Homo sapiens, UniProt P21453).
T1 construct: expressed in transfected cells; host or cells: human osteogenic sarcoma U2OS cells: Edg-1 Transfluor U2OS WT Clone #37 (assay I), Edg-1 Transfluor U2OS Clone #3 (assay II)
T1 sequence (P21453 whole entry): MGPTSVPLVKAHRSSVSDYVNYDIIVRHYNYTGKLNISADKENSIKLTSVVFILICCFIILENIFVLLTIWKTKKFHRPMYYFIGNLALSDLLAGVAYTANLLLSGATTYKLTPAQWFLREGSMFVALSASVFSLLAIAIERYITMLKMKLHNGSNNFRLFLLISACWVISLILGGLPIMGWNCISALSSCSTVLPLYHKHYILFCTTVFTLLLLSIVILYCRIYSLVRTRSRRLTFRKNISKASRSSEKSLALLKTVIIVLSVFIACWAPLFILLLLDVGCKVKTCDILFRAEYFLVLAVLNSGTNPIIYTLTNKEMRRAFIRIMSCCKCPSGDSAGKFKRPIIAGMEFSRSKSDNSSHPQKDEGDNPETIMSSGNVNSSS
The test is described as follows: In vitro cell based receptor activation assay - Transfluor assay (assay I or II; beta-arrestin GFP relocalization after S1P stimulation). As to conditions: at 1 μM (titrated with 3.50 μM as top concentration). The gist of the method:
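U2OS cells overexpressing S1P1 with a beta-arrestin-GFP construct were pre-incubated with compound for 15 min at room temperature, then stimulated with S1P for 45 min at 37 °C. In assay I, final S1P was 375 nM or 750 nM and compound was a 9-point 3-fold series from 100 μM, in 1% DMSO. Cells were fixed and Hoechst-stained, GFP relocalization was imaged, and EC50 values were fitted.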
Regarding `CCn1c([C@@H](C)NS(=O)(=O)c2ccc(Cl)cc2)nc2cc(F)c(F)c(F)c21` [Example 91, (R)-4-Chloro-N-[1-(1-ethyl-5,6,7-trifluoro-1H-benzoimidazol-2-yl)-ethyl]-benzenesulfonamide], 1 µM produced 91.8% inhibition.

Still in this test, the particulars now being: at 3.50 μM (titrated from top concentration 10 μM).
Take `CCn1c([C@@H](C)NS(=O)(=O)c2ccc(Cl)cc2)nc2ccc(C)cc21` [Example 89, 4-Chloro-N-[(1R)-1-(1-ethyl-6-methyl-1H-benzimidazol-2-yl)ethyl]benzenesulfonamide]: testing at 3.5 µM gave an inhibition of 90.7%.
With `CCn1c([C@@H](C)NS(=O)(=O)c2ccc(Cl)cc2)nc2c(F)cccc21` [Example 90, 4-Chloro-N-[(1R)-1-(1-ethyl-4-fluoro-1H-benzimidazol-2-yl)ethyl]benzenesulfonamide], the inhibition – broadly, the drop in the measured response relative to a control, in per cent – at 3.5 µM is 93.4%.
Still for that read-out and setting: the same measure for `CCn1c([C@@H](C)NS(=O)(=O)c2ccc(Cl)cc2)nc2cc(C(F)(F)F)ccc21` [Example 92, 4-Chloro-N-{(1R)-1-[1-ethyl-5-(trifluoromethyl)-1H-benzimidazol-2-yl]ethyl}benzenesulfonamide]: 86.1%.
Compound `CCn1c(C(C)NS(=O)(=O)c2ccc(Cl)cc2)nc2c(OC)nccc21` (centres unmarked) [Example 95, 4-chloro-N-[1-(1-ethyl-4-methoxy-1H-imidazo[4,5-c]pyridin-2-yl)ethyl]benzenesulfonamide] gave an inhibition at 3.5 µM of 47.7%.
Turning to `CCn1c([C@@H](C)NS(=O)(=O)c2ccc(Cl)cc2)nc2cnc(C3CC3)cc21` [Example 98, 4-Chloro-N-[(1R)-1-(6-cyclopropyl-1-ethyl-1H-imidazo[4,5-c]pyridin-2-yl)ethyl]benzenesulfonamide], the inhibition at 3.5 µM amounted to 88.2%.
`CCn1c([C@H](C)NS(=O)(=O)c2ccc(Cl)cc2)nc2ccc(C(F)(F)F)cc21` [Example 100, 4-Chloro-N-{(1S)-1-[1-ethyl-6-(trifluoromethyl)-1H-benzimidazol-2-yl]ethyl}benzenesulfonamide]: at 3.5 µM the inhibition was 84.6%.
As for `CCn1c([C@@H](C)NS(=O)(=O)c2ccc(Cl)cc2)nc2cnccc21` [Example 102, 4-Chloro-N-[(1R)-1-(1-ethyl-1H-imidazo[4,5-c]pyridin-2-yl)ethyl]benzenesulfonamide], 3.5 µM produced 93.8% inhibition.
As to `CCn1c([C@@H](C)NS(=O)(=O)c2ccc(C#N)cc2)nc2cnccc21` [Example 103, 4-Cyano-N-[(1R)-1-(1-ethyl-1H-imidazol[4,5-c]pyridin-2-yl)ethyl]benzenesulfonamide], 3.5 µM produced 89.4% inhibition.
On to `CCn1c([C@@H](C)NS(=O)(=O)c2ccc(F)cc2)nc2cnccc21` [Example 104, 4-Fluoro-N-[(1R)-1-(1-ethyl-1H-imidazo[4,5-c]pyridin-2-yl)ethyl]benzenesulfonamide], for which 3.5 µM produced 90.3% inhibition.
As for `CCn1c([C@@H](C)NS(=O)(=O)c2ccc(C#N)nc2)nc2ccc(C(F)(F)F)cc21` [Example 105, (R)-6-Cyano-N-(1-(1-ethyl-6-(trifluoromethyl)-1H-benzo[d]imidazol-2-yl)ethyl) pyridine-3-sulfonamide], 3.5 µM produced 93.1% inhibition.
Still for that read-out and setting: the figure for `CCn1c([C@@H](C)NS(=O)(=O)c2ccc(C(N)=O)nc2)nc2ccc(C(F)(F)F)cc21` [Example 106, (R)-5-(N-(1-(1-Ethyl-6-(trifluoromethyl)-1H-benzo[d]imidazol-2-yl)ethyl)sulfamoyl)picolinamide] is 93.3%; for `CCn1c([C@@H](C)NS(=O)(=O)c2ccc(F)nc2)nc2ccc(C(F)(F)F)cc21` [Example 107, (R)-N-(1-(1-Ethyl-6-(trifluoromethyl)-1H-benzo[d]imidazol-2-yl)ethyl)-6-fluoropyridine-3-sulfonamide] it is 92.5%; for `CCn1c([C@@H](C)NS(=O)(=O)c2ccc(C)nc2)nc2ccc(C(F)(F)F)cc21` [Example 108, (R)-N-(1-(1-Ethyl-6-(trifluoromethyl)-1H-benzo[d]imidazol-2-yl)ethyl)-6-methylpyridine-3-sulfonamide] it is 91.8%.
In turn, `CCn1c([C@@H](C)NS(=O)(=O)c2ccc(OC)nc2)nc2ccc(C(F)(F)F)cc21` [Example 109, (R)-N-(1-(1-Ethyl-6-(trifluoromethyl)-1H-benzo[d]imidazol-2-yl)ethyl)-6-methoxypyridine-3-sulfonamide] came in with an inhibition at 3.5 µM of 95.6%.
Consider `CCn1c([C@@H](C)NS(=O)(=O)c2ccc([N+](=O)[O-])cc2)nc2ccc(C(F)(F)F)cc21` [Example 110, (R)-N-(1-(1-Ethyl-6-(trifluoromethyl)-1H-benzo[d]imidazol-2-yl)ethyl)-4-nitrobenzenesulfonamide], for which 3.5 µM produced 92.4% inhibition.
Regarding `CCn1c([C@@H](C)NS(=O)(=O)c2ccc(NC(N)=O)cc2)nc2ccc(C(F)(F)F)cc21` [Example 112, (R)-N-(1-(1-Ethyl-6-(trifluoromethyl)-1H-benzo[d]imidazol-2-yl)ethyl)-4-ureidobenzenesulfonamide], the “% inhibition” value is “[drawing 124] (R)-N-(1-(1-Ethyl-6- (trifluoromethyl)-1H- benzo[d]imidazol-2-yl)ethyl)- 4-ureidobenzenesulfonamide (Inactive at 3.50 μM)”.
For the compound `CCn1c([C@@H](C)NS(=O)(=O)c2ccc(NC(=O)N(C)C)cc2)nc2ccc(C(F)(F)F)cc21` [Example 113, (R)-4-(3,3-Dimethylureido)-N-(1-(1-ethyl-6-(trifluoromethyl)-1H-benzo[d]imidazol-2-yl)ethyl)benzenesulfonamide], the “% inhibition” value is “[drawing 125] (R)-4-(3,3-Dimethylureido)- N-(1-(1-ethyl-6- (trifluoromethyl)-1H- benzo[d]imidazol-2-yl)ethyl)benzenesulfonamide (Inactive at 3.50 μM)”.
`CCn1c([C@@H](C)NS(=O)(=O)c2ccc(C#N)cn2)nc2ccc(C(F)(F)F)cc21` [Example 114, (R)-5-Cyano-N-(1-(1-ethyl-6-(trifluoromethyl)-1H-benzo[d]imidazol-2-yl)ethyl)pyridine-2-sulfonamide]: 3.5 µM produced 72% inhibition.
In turn, `CCn1c([C@@H](C)NS(=O)(=O)c2ccc(C)cc2)nc2ccc(C(F)(F)F)cc21` [Example 115, (R)-N-(1-(1-Ethyl-6-(trifluoromethyl)-1H-benzo[d]imidazol-2-yl)ethyl)-4-methylbenzenesulfonamide] returned an inhibition at 3.5 µM of 85.3%.
`CCn1c([C@@H](C)NS(=O)(=O)c2ccc(CC(C)C)cc2)nc2ccc(C(F)(F)F)cc21` [Example 116, N-{(1R)-1-[1-Ethyl-6-(trifluoromethyl)-1H-benzimidazol-2-yl]ethyl}-4-isobutylbenzenesulfonamide] came in with an inhibition at 3.5 µM of 64.1%.

Still in this test, the particulars now being: at 3.55 μM.
`CCn1c([C@@H](C)NS(=O)(=O)c2ccc(Cl)cc2)nc2ncc(C(F)(F)F)cc21` [Example 88, 4-Chloro-N-{(1R)-1-[1-ethyl-6-(trifluoromethyl)-1H-imidazo[4,5-b]pyridin-2-yl]ethyl}benzenesulfonamide]: the inhibition at 3.55 µM is 82.6%.

The same test, now with this note: at 3.70 μM (titrated from top concentration 100 μM).
`CCn1c([C@@H](C)NS(=O)(=O)c2ccc(Cl)cc2)nc2cc(-c3ccncc3)ccc21` [Example 83, 4-Chloro-N-[(1R)-1-(1-ethyl-5-pyridin-4-yl-1H-benzimidazol-2-yl)ethyl]benzenesulfonamide] yielded an inhibition at 3.7 µM of 16.4%.
`CCn1c([C@@H](C)NS(=O)(=O)c2ccc(Cl)cc2)nc2cc(C3CC3)ccc21` [Example 84, 4-Chloro-N-[(1R)-1-(5-cyclopropyl-1-ethyl-1H-benzimidazol-2-yl)ethyl]benzenesulfonamide] showed an inhibition at 3.7 µM of 59.3%.
`CCn1c([C@@H](C)NS(=O)(=O)c2ccc(Cl)cc2)nc2cc(C(F)(F)F)c(Cl)cc21` [Example 85, 4-Chloro-N-{(1R)-1-[6chloro-1-ethyl-5-(trifluoromethyl)-1H-benzimidazol-2-yl]ethyl}benzenesulfonamide] showed an inhibition at 3.7 µM of 44.9%.
The compound `CCn1c([C@@H](C)NS(=O)(=O)c2ccc(Cl)cc2)nc2cccc(Cl)c21` [Example 86, (R)-4-Chloro-N-[1-(7-chloro-1-ethyl-1H-benzoimidazol-2-yl)ethyl]-benzenesulfonamide] had an inhibition at 3.7 µM of 51.7%.
Still for that read-out and setting: the same measure for `CCn1c([C@@H](C)NS(=O)(=O)c2ccc(Cl)cc2)nc2nnc(Cl)cc21` [Example 87, 4-Chloro-N-[(1R)-1-(3-chloro-5-ethyl-5H-imidazo[4,5-c]pyridazin-6-yl)ethyl]benzenesulfonamide]: 62.4%; for `CCn1c([C@@H](C)NS(=O)(=O)c2ccc(Cl)cc2)nc2cc(Br)c(C(F)(F)F)cc21` [Example 93, N-{(1R)-1-[5-Bromo-1-ethyl-6-(trifluoromethyl)-1H-benzimidazol-2-yl]ethyl}-4-chlorobenzenesulfonamide]: 62.3%.
`CCn1c(C(C)NS(=O)(=O)c2ccc(Cl)cc2)nc2c(Cl)nccc21` (centres unmarked) [Example 94, 4-Chloro-N-[1-(4-chloro-1-ethyl-1H-imidazo[4,5-c]pyridin-2-yl)ethyl]benzenesulfonamide] showed an inhibition at 3.7 µM of 91.6%.
In turn, `CCn1c(C(C)NS(=O)(=O)c2ccc(Cl)cc2)nc2cnc(C(F)(F)F)nc21` (centres unmarked) [Example 96, 4-chloro-N-{1-[9-ethyl-2-(trifluoromethyl)-9H-purin-8-yl]ethyl}benzenesulfonamide] yielded an inhibition at 3.7 µM of 81.7%.
`CCn1c([C@@H](C)NS(=O)(=O)c2ccc(Cl)cc2)nc2cnc(Cl)cc21` [Example 97, 4-chloro-N-[(1R)-1-(6-chloro-1-ethyl-1H-imidazo[4,5-c]pyridin-2-yl)ethyl]benzenesulfonamide]: the inhibition at 3.7 µM is 88.9%.
The compound `CCn1c(C(C)NS(=O)(=O)c2ccc(Cl)cc2)nc2ccc(C(F)(F)F)cc21` (centres unmarked) [Example 99, 4-Chloro-N-{1-[1-ethyl-6-(trifluoromethyl)-1H-benzimidazol-2-yl]ethyl}benzenesulfonamide] showed an inhibition at 3.7 µM of 94.5%.
